The record followed here is patent US5519024A, “Quinolonecarboxylic acid derivatives and their use” (Takeda Chemical Industries, Ltd., priority 1993, dated 1996).

This assay concerns the target T1, GPIIb/IIIa (Homo sapiens, UniProt P05106+P08514).
T1 construct: Purification of GPIIb/IIIa from HEL cells; endogenous in cells; host or cells: HEL cells (HEL 92.1.7, ATCC TIB180); endogenous complex solubilized with Triton X-100 and purified in house
Briefly: Inhibitory activity against binding of GPIIb/IIIa and fibrinogen. The conditions noted are these: for inhibition at 10 µM / inhibition at 1 µM: read-out: GPIIb/IIIa Fibrinogen Binding Inhibitory Activity; for GPIIb/IIIa Fibrinogen Binding Inhibitory Activity: Table 1. Here is the method:
Test Example 1: Inhibitory activity against binding of GPIIb/IIIa and fibrinogen
(1) Cultivation of human erythroleukemia-derived cell line (hereinafter referred to as HEL cells)
HEL cells (HEl92.1.7; ATCC No. TIB180) were purchased from ATCC (Rockville, Md., U.S.A.). The medium was RPMI medium (GIBCO Laboratories, Grand Island, N..Y, U.S.A.) containing 40 mM N-2-hydroxyethylpiperazine-N'-2-ethanesulfonic acid (hereinafter referred to as HEPES) (pH 7.0), 0.2% NaHCO3, 100 μg/ml kanamycin and 10% FCS. The cells were cultured in the presence of 5% CO2 at 37° C., with the medium replaced with a fresh medium to obtain a 4- to 5-fold dilution at intervals of 3 to 4 days.
(2) Purification of GPIIb/IIIa from HEL cells
GPIIb/IIIa was purified by a modification of the method of L. A. Fitzgerald et al. [J. Biol. Chem., 262, 3936 (1987)] as follows: All purification was conducted at room temperature, unless otherwise stated. At 7 days of cultivation, cells were collected from the HEL cell culture broth (cell suspension) by centrifugation (1,000 ×g, 10 minutes, 4° C.). After washing with 20 mM Tris-HCl (pH 7.5) containing 1 mM EDTA and 150 mM NaCl, the cells were suspended in a solubilizing buffer (20 mM Tris-HCl, 150 mM NaCl, 1% Triton X-100, 1 mM MgCl2, 1 mM CaCl2, 0.1 mM (p-amidinophenyl)methanesulfonyl fluoride (hereinafter referred to as APMSF), 10 nM leupeptin, 0.02% NaN3, pH 7.4), followed by gentle stirring at 4° C. for 30 minutes, to solubilize the GPIIb/IIIa. The suspension was centrifuged (100,000 ×g, 1 hour) at 4° C., and the cell debris removed, to yield a cell extract. The cell extract was passed through a Heparin-Sepharose CL-6B column (Pharmacia LKB) and a DEAE-Toyopearl 650M column (Tosoh), both previously equilibrated with a column buffer (20 mM Tris-HCl, 150 mM NaCl, 0.1% Triton X-100, 1 mM MgCl2, 1 mM CaCl2, 0.1 mM APMSF, 1 nM leupeptin, 0.05% NaN3, pH 7.4). The effluent was applied to a ConA-Sepharose column (Pharmacia LKB), previously equilibrated with the same column buffer as above, to adsorb the GPIIb/IIIa, followed by elution with the same column buffer but containing 0.5M methyl α-D-mannopyranoside. The eluted fraction was concentrated at 4° C. using an ultrafiltration apparatus (Amicon Corporation the fraction's molecular weight of 10,000), after which it was subjected to gel filtration through a Sephacryl S-300 column (Pharmacia LKB), previously equilibrated with the same column buffer, to yield a purified standard sample.
(3) Biotinization of human fibrinogen
Conducted by the method of I. F. Charo [I. F. Charo et al., J. Biol. Chem., 266, 1415 (1991)].
Human fibrinogen (Kabi Vitrum AB) was dissolved in PBS to 5 mg/ml and then dialyzed at 4° C. against 0.1M carbonate buffer (pH 8.2) containing 0.1M NaCl. After dialysis, insoluble substances were removed by centrifugation (100,000 ×g, 30 minutes), and the dialyzate was diluted to 1 mg/ml with the same buffer. To this dilution, sulfo-N-hydroxysuccinimidebiotin (Pierce Chemical Co.) was added to a final concentration of 0.2 mg/ml, followed by gentle mixing at room temperature for 30 minutes, to biotinize the fibrinogen. After completion of the reaction, the mixture was dialyzed against 0.05M Tris-HCl buffer (pH 7.4) containing 0.1M NaCl and 0.05% NaN3.
(4) Determination of inhibitory activity against fibrinogen binding
Conducted by a modification of the method of I. F. Charo [I. F. Charo et al., J. Biol. Chem., 266, 1415 (1991)] as follows: The purified GPIIb/IIIa was diluted to 1 μg/ml with buffer A (20 mM Tris-HCl, 150 mM NaCl, 1 mM CaCl2, 0.02% NaN3, pH 7.4). A 100 μl aliquot of this dilution was dispensed to a 96-well microplate (Maxisorp, produced by Nunc), and the plate kept standing at 4° C., to adsorb the GPIIb/IIIa to the microplate. Next, 150 μl of buffer B (35 mg/ml BSA, 50 mM Tris-HCl, 100 mM NaCl, 2 mM CaCl2, 0.02% NaN3, pH 7.4) was added, followed by 2 hours of blocking at 30° C. […]

Structures can show the parent of a compound that is named as a salt. Where two headings read alike, the source gives them in different places.

T1 sequence (P08514 32-887 limits assumed): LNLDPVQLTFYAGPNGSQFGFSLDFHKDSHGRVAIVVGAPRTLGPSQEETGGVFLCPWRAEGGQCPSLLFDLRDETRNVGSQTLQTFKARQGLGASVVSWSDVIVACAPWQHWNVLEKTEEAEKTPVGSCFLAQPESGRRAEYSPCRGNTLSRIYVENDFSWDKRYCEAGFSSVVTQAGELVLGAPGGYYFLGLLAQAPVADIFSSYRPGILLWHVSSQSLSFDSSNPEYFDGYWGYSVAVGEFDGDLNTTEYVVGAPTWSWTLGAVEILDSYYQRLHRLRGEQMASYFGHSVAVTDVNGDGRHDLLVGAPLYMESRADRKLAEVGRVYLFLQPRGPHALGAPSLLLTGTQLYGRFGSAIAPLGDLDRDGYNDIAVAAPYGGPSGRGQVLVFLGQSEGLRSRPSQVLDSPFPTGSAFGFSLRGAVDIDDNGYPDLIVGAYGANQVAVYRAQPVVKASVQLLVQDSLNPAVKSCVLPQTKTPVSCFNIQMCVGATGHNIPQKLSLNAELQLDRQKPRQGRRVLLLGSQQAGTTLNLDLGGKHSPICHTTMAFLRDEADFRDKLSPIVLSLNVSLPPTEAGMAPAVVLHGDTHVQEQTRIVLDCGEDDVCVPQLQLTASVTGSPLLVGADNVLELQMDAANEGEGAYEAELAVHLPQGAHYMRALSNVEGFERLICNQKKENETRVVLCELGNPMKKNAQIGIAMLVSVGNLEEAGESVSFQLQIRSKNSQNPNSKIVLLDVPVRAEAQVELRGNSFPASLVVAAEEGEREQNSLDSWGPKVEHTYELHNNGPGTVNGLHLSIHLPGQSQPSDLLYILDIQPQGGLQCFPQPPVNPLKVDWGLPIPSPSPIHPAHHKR
T1 sequence (P08514 891-1039 limits assumed): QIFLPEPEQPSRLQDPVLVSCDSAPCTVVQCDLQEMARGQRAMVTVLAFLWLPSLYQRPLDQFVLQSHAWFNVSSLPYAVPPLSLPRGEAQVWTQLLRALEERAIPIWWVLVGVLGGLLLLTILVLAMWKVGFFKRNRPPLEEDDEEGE
T1 sequence (P05106 27-788): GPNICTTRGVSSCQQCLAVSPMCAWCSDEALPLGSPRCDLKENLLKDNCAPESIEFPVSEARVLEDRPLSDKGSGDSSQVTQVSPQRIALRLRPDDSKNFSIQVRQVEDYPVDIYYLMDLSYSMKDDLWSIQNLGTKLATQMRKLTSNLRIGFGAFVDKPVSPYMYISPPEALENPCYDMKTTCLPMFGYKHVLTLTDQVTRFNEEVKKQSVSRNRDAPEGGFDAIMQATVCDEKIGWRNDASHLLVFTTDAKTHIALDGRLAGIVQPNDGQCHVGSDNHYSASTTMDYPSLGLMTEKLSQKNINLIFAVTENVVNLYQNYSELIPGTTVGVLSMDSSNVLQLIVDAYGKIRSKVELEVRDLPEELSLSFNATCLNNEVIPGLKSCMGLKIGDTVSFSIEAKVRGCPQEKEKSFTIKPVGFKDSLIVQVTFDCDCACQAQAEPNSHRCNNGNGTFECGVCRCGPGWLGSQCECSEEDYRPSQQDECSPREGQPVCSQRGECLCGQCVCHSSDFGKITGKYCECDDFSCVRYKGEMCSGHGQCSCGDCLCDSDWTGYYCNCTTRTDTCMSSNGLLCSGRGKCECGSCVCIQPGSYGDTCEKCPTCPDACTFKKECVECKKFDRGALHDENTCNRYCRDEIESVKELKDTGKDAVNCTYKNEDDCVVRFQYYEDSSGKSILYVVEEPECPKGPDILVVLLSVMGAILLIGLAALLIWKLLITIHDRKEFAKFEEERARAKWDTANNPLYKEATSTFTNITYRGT

`O=C(O)c1cn(C2CC2)c2c(F)c(N3CCn4ccnc4C3)c(F)c(F)c2c1=O` [Compound 40]: the inhibition at 10 µM (Table 2, 10^-5 M) was 50.6%. Also, where the note is “Table 2, 10^-6 M”, the inhibition at 1 µM came to 34.7%.
Regarding `O=C(O)c1cn2c3c(c(N4CCn5ccnc5C4)c(F)cc3c1=O)OCC2` [Compound 52, 9-Fluoro-10-(5,6,7,8-tetrahydroimidazo[1,2-a]pyrazin-7-yl)-2,3-dihydro-7-oxo-7H-pyrido[1,2,3-a][1,4]benzoxazine-6-carboxylic acid], the inhibition at 10 µM (Table 2, 10^-5 M) came out at 90.8%. Also, under “Table 2, 10^-6 M”, the inhibition at 1 µM turned out to be 55%.
Take `Nc1c(F)c(N2CCN3CCC[C@@H]3C2)c(F)c2c1c(=O)c(C(=O)O)cn2C1CC1` [Compound 44]: the inhibition at 10 µM (Table 2, 10^-5 M) was found to be 61.6%. Moreover, the inhibition at 1 µM (Table 2, 10^-6 M) was determined as 33.4%.
Consider `CCn1cc(C(=O)O)c(=O)c2cc(F)c(N3CCN(Cc4ccccn4)CC3)cc21` [Compound 4], for which, under “Table 2, 10^-5 M”, the inhibition at 10 µM is 70.9%. For the same compound, where the note is “Table 2, 10^-6 M”, the inhibition at 1 µM stood at 33%.
Take `C=CCN(CC=C)c1c(F)cc2c(=O)c(C(=O)O)cn(C3CC3)c2c1F` [Compound 43]: the inhibition at 10 µM (Table 2, 10^-5 M) was determined as 52.1%. Also, the inhibition at 1 µM (Table 2, 10^-6 M) was 20.2%.
`O=C(O)c1cn(Cc2nccs2)c2cc(N3CCN(c4ccncc4)CC3)ccc2c1=O` [Compound 57, 7-[4-(4-Pyridyl)piperazine-1-yl]-1-(2-thiazolylmethyl)-1,4-dihydro-4-oxoquinoline-3-carboxylic acid]: the inhibition at 10 µM (Table 2, 10^-5 M) came to 100%. The inhibition at 1 µM (Table 2, 10^-6 M) amounted to 100%.
`O=C(O)c1cn(C2CC2)c2c(F)c(N3CCNCC3)c(F)cc2c1=O` [Compound 22]: the inhibition at 10 µM (Table 2, 10^-5 M) is 72.7%. Moreover, the inhibition at 1 µM (Table 2, 10^-6 M) turned out to be 39.8%.
`COc1ccc(Cn2cc(C(=O)O)c(=O)c3ccc(N4CCNCC4)cc32)cc1` [Compound 81, 1-(4-Methoxybenzyl)-7-(4-piperazin-1-yl)-1,4-dihydro-4-oxoquinoline-3-carboxylic acid]: where the note is “Table 2, 10^-5 M”, the inhibition at 10 µM came to 100%. Also, where the note is “Table 2, 10^-6 M”, the inhibition at 1 µM stood at 100%.
For `O=C(O)c1cn(CCc2ccccc2)c2c(F)c(N3CCNCC3)c(F)cc2c1=O` [Compound 56], the inhibition at 10 µM (Table 2, 10^-5 M) was found to be 88.2%. Besides, the inhibition at 1 µM (Table 2, 10^-6 M) came to 72.2%.
On to `CN(C)CCn1cc(C(=O)O)c(=O)c2cc(F)c(N3CCNCC3)cc21` [Compound 12], for which the inhibition at 10 µM (Table 2, 10^-5 M) came out at 79.1%. For the same compound, the inhibition at 1 µM (Table 2, 10^-6 M) was 65.1%.
On to `O=C(O)c1cn(Cc2ccc(C(F)(F)F)cc2)c2c(F)c(N3CCC(C4CCNCC4)CC3)c(F)cc2c1=O` [Compound 79, 6,8-Difluoro-7-[4-(4-piperidinyl)piperidin-1-yl]-1-(4-trifiuoromethylbenzyl)-1,4-dihydro-4-oxoquinoline-3-carboxylic acid], for which, where the note is “Table 2, 10^-5 M”, the inhibition at 10 µM worked out at 100%. Under “Table 2, 10^-6 M”, the inhibition at 1 µM was 100%.
As to `NCCN1CCN(c2c(F)cc3c(=O)c(C(=O)O)cn(Cc4nccs4)c3c2F)CC1` [Compound 70], for the setting “Table 2, 10^-5 M”, the inhibition at 10 µM was 100%. Further, the inhibition at 1 µM (Table 2, 10^-6 M) was 95.9%.
Consider `NCc1nc2c(s1)CCN(c1c(F)cc3c(=O)c(C(=O)O)cn(C4CC4)c3c1F)C2` [Compound 48], for which the inhibition at 1 µM (Table 2, 10^-6 M) turned out to be 57.7%.
With `O=C(O)c1cn(Cc2cscn2)c2c(F)c(N3CCNCC3)c(F)cc2c1=O` [Compound 72, 6,8-Difluoro-7-(1-piperazinyl)-1-(4-thiazolylmethyl)-1,4-dihydro-4-oxoquinoline-3-carboxylic acid hydrochloride], for the setting “Table 2, 10^-5 M”, the inhibition at 10 µM was determined as 100%. The inhibition at 1 µM (Table 2, 10^-6 M) came out at 88.6%.
As for `CN1CCN(c2c(F)cc3c(=O)c(C(=O)O)cn(Cc4nccs4)c3c2F)CC1` [Compound 50, 6,8-Difluoro-7-(4-methylpiperazin-1-yl)-1-(thiazol-2-yl)methyl-1,4-dihydro-4-oxoquinoline-3-carboxylic acid hydrochloride], the inhibition at 10 µM (Table 2, 10^-5 M) is 99.8%. Besides, the inhibition at 1 µM (Table 2, 10^-6 M) stood at 92.3%.
In the case of `CCn1cc(C(=O)O)c(=O)c2cc(F)c(N3CCN4CCCC4C3)c(F)c21` (stereo not drawn) [Compound 6], the inhibition at 10 µM (Table 2, 10^-5 M) is 83.3%. Further, for the setting “Table 2, 10^-6 M”, the inhibition at 1 µM is 39.3%.
The like results for `CN1CCN(C(=O)OC2CCN(c3c(F)cc4c(=O)c(C(=O)O)cn(Cc5nccs5)c4c3F)C2)CC1` (stereo not drawn) [Compound 63] were, in that order, 100% and 100%.
As to `CN1CCN(c2c(F)cc3c(=O)c(C(=O)O)cn(C4CC4)c3c2F)CC1` [Compound 17], where the note is “Table 2, 10^-5 M”, the inhibition at 10 µM was 47.3%. Further, the inhibition at 1 µM (Table 2, 10^-6 M) came out at 17.1%.
The like results for `O=C(O)c1cn(Cc2nccs2)c2c(F)c(N3CCn4ccnc4C3)c(F)cc2c1=O` [Compound 51] were, in that order, 97.5% and 88.1%.
For `O=C(O)c1cn(Cc2nccs2)c2c(F)c(N3CCN(c4cc(N5CCCC5)nc(N5CCCC5)n4)CC3)c(F)cc2c1=O` [Compound 67], the inhibition at 10 µM (Table 2, 10^-5 M) stood at 58.6%. For the same compound, under “Table 2, 10^-6 M”, the inhibition at 1 µM was 76.4%.
`CN(C)CCOC1CCN(c2c(F)cc3c(=O)c(C(=O)O)cn(C4CC4)c3c2F)C1` (stereo not drawn) [Compound 25]: for the setting “Table 2, 10^-5 M”, the inhibition at 10 µM is 87.8%. For the same compound, for the setting “Table 2, 10^-6 M”, the inhibition at 1 µM was 67.7%.
`O=C(O)c1cn(CCF)c2c(F)c(N3CCN4CCCC4C3)c(F)cc2c1=O` (stereo not drawn) [Compound 8]: under “Table 2, 10^-5 M”, the inhibition at 10 µM is 79.3%. Further, the inhibition at 1 µM (Table 2, 10^-6 M) turned out to be 53.1%.
Regarding `O=C(O)CCn1cc(C(=O)O)c(=O)c2cc(F)c(N3CCNCC3)c(F)c21` [Compound 14], for the setting “Table 2, 10^-6 M”, the inhibition at 1 µM worked out at 56.1%.
For the compound `O=C(O)c1cn(C2CC2)c2cc(N3CCNCC3)c(F)cc2c1=O` [Cyprofloxacin, reference compound], the inhibition at 1 µM was determined as 47.6% and the inhibition at 10 µM stood at 85.5%.
`COc1ccc(Cn2cc(C(=O)O)c(=O)c3ccc(N4CCC(C5CCNCC5)CC4)cc32)cc1` [Compound 77, 1-(4-Methoxybenzyl)-7-[4-(4-piperidinyl)piperidin-1-yl]-1,4-dihydro-4-oxoquinoline-3-carboxylic acid]: for the setting “Table 2, 10^-5 M”, the inhibition at 10 µM turned out to be 94.5%. Besides, the inhibition at 1 µM (Table 2, 10^-6 M) stood at 100%.
For the compound `O=C(O)c1cn(CCF)c2c(F)c(N3CCn4ccnc4C3)c(F)cc2c1=O` [Compound 9], the inhibition at 10 µM (Table 2, 10^-5 M) amounted to 69.5%. Moreover, under “Table 2, 10^-6 M”, the inhibition at 1 µM came out at 43.9%.
As to Romechloxaxin [reference compound], the “GPIIb/IIIa Fibrinogen Binding Inhibitory Activity” value (1 × 10^-5 M) was 59.6% and the “GPIIb/IIIa Fibrinogen Binding Inhibitory Activity” value (1 × 10^-6 M) came out at 22.8%.
Turning to `NC(=O)OC1CCN(c2c(F)cc3c(=O)c(C(=O)O)cn(-c4ccc(F)cc4F)c3c2F)C1` (stereo not drawn) [Compound 47], the inhibition at 1 µM (Table 2, 10^-6 M) was 43.1%.
With `O=C(O)c1cn(Cc2nccs2)c2c(F)c(N3CCN(c4ccccn4)CC3)c(F)cc2c1=O` [Compound 65], the inhibition at 10 µM (Table 2, 10^-5 M) was 100%. Moreover, the inhibition at 1 µM (Table 2, 10^-6 M) amounted to 81.2%.
In the case of `O=C(O)c1cn(C2CC2)c2c(F)c(N3CCn4cc(CN5CCOCC5)nc4C3)c(F)cc2c1=O` [Compound 30], the inhibition at 10 µM (Table 2, 10^-5 M) is 54.8%. Besides, where the note is “Table 2, 10^-6 M”, the inhibition at 1 µM is 24.2%.
